Measurements: PubChem BioAssay (NCI)
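96-well plates; 48 h exposure; 5 concentrations. Endpoints by linear interpolation between flanking doses. Not reached: highest tested concentration assigned. The concentration for 50% growth inhibition is given as GI50. TGI marks complete inhibition of growth.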

Experiments:
Test in all cases: NCI tumour cell line growth inhibition, 48 h
[1] = system: 786-0 renal
[2] = system: A498 renal
[3] = system: A549 NSCLC
[4] = system: ACHN renal
[5] = system: BT-549 breast
[6] = system: CAKI-1 renal
[7] = system: CCRF-CEM leukemia
[8] = system: COLO 205 colon
[9] = system: DU-145 prostate
[10] = system: EKVX NSCLC
[11] = system: HCC-2998 colon
[12] = system: HCT-116 colon
[13] = system: HCT-15 colon
[14] = system: HL-60(TB) leukemia
[15] = system: HOP-62 NSCLC
[16] = system: HOP-92 NSCLC
[17] = system: HS 578T breast
[18] = system: HT29 colon
[19] = system: IGROV1 ovarian
[20] = system: K-562 leukemia
[21] = system: KM12 colon
[22] = system: LOX IMVI melanoma
[23] = system: MALME-3M melanoma
[24] = system: MCF7 breast
[25] = system: MDA-MB-231 breast
[26] = system: MDA-MB-435
[27] = system: MOLT-4 leukemia
[28] = system: NCI-H226 lung
[29] = system: NCI-H23 lung
[30] = system: NCI-H460 lung
[31] = system: NCI-H522 lung
[32] = system: NCI/ADR-RES ovarian
[33] = system: OVCAR-3 ovarian
[34] = system: OVCAR-4 ovarian
[35] = system: OVCAR-5 ovarian
[36] = system: OVCAR-8 ovarian
[37] = system: PC-3 prostate
[38] = system: RPMI-8226 leukemia
[39] = system: RXF 393 renal
[40] = system: SF-268 CNS
[41] = system: SF-295 CNS
[42] = system: SF-539 CNS
[43] = system: SK-MEL-2 melanoma
[44] = system: SK-MEL-28 melanoma
[45] = system: SK-MEL-5 melanoma
[46] = system: SK-OV-3 ovarian
[47] = system: SN12C renal
[48] = system: SNB-19 CNS
[49] = system: SNB-75 CNS
[50] = system: SR leukemia
[51] = system: SW-620 colon
[52] = system: T-47D breast
[53] = system: TK-10 renal
[54] = system: U251 CNS
[55] = system: UACC-257 melanoma
[56] = system: UACC-62 melanoma
[57] = system: UO-31 renal
[58] = system: M14 melanoma

O=c1cc(NCC(O)CN2CCOCC2)n(Cc2ccccc2)c(=O)n1Cc1ccccc1 (configuration not stated)
GI50 [1]: 41.4 µM | TGI [1]: > 100 µM | GI50 [2]: 49.3 µM | TGI [2]: > 100 µM | GI50 [3]: 53.5 µM | TGI [3]: > 100 µM | GI50 [4]: 49.8 µM | TGI [4]: > 100 µM | GI50 [5]: 45.9 µM | TGI [5]: > 100 µM | GI50 [6]: 85.9 µM | TGI [6]: > 100 µM | GI50 [7]: 36.9 µM | TGI [7]: > 100 µM | GI50 [8]: 23.5 µM | TGI [8]: 58.6 µM | GI50 [9]: 51.7 µM | TGI [9]: > 100 µM | GI50 [10]: 70.6 µM | TGI [10]: > 100 µM | GI50 [11]: 34.9 µM | TGI [11]: > 100 µM | GI50 [12]: 34.8 µM | TGI [12]: > 100 µM | GI50 [13]: 45.5 µM | TGI [13]: > 100 µM | GI50 [14]: 12.6 µM | TGI [14]: > 100 µM | GI50 [15]: 34.2 µM | TGI [15]: > 100 µM | GI50 [16]: 21.7 µM | TGI [16]: 77.1 µM | GI50 [17]: 37.8 µM | TGI [17]: > 100 µM | GI50 [18]: 18.8 µM | TGI [18]: 41.6 µM | GI50 [19]: 33.5 µM | TGI [19]: 86.3 µM | GI50 [20]: 30.8 µM | TGI [20]: > 100 µM | GI50 [21]: 36.1 µM | TGI [21]: > 100 µM | GI50 [22]: 37.8 µM | TGI [22]: > 100 µM | GI50 [23]: 26.9 µM | TGI [23]: 77.3 µM | GI50 [24]: 41.8 µM | TGI [24]: > 100 µM | GI50 [25]: 19.2 µM | TGI [25]: 53.6 µM | GI50 [26]: 59.7 µM | TGI [26]: > 100 µM | GI50 [27]: 27.8 µM | TGI [27]: > 100 µM | GI50 [28]: 56.8 µM | TGI [28]: > 100 µM | GI50 [29]: 42.5 µM | TGI [29]: > 100 µM | GI50 [30]: 44.2 µM | TGI [30]: > 100 µM | GI50 [31]: 28.1 µM | TGI [31]: 72 µM | GI50 [32]: 65.7 µM | TGI [32]: > 100 µM | GI50 [33]: 56.2 µM | TGI [33]: > 100 µM | GI50 [34]: 39.9 µM | TGI [34]: > 100 µM | GI50 [35]: > 100 µM | TGI [35]: > 100 µM | GI50 [36]: 72.8 µM | TGI [36]: > 100 µM | GI50 [37]: 33.7 µM | TGI [37]: > 100 µM | GI50 [38]: 28.3 µM | TGI [38]: 78 µM | GI50 [39]: 30.5 µM | TGI [39]: 92.5 µM | GI50 [40]: 63.6 µM | TGI [40]: > 100 µM | GI50 [41]: 41.2 µM | TGI [41]: > 100 µM | GI50 [42]: 60.2 µM | TGI [42]: > 100 µM | GI50 [43]: > 100 µM | TGI [43]: > 100 µM | GI50 [44]: 28.7 µM | TGI [44]: 70.3 µM | GI50 [45]: 19.2 µM | TGI [45]: 35 µM | GI50 [46]: > 100 µM | TGI [46]: > 100 µM | GI50 [47]: 42.3 µM | TGI [47]: > 100 µM | GI50 [48]: > 100 µM | TGI [48]: > 100 µM | GI50 [49]: 31.8 µM | TGI [49]: 91.3 µM | GI50 [50]: 19.8 µM | TGI [50]: 49.3 µM | GI50 [51]: 62.5 µM | TGI [51]: > 100 µM | GI50 [52]: 61 µM | TGI [52]: > 100 µM | GI50 [53]: > 100 µM | TGI [53]: > 100 µM | GI50 [54]: 47.6 µM | TGI [54]: > 100 µM | GI50 [55]: 30.2 µM | TGI [55]: 85.8 µM | GI50 [56]: 22.7 µM | TGI [56]: 63.3 µM | GI50 [57]: 27.3 µM | TGI [57]: 85.8 µM

C[C@]12CCC(=O)CC1CC[C@@H]1C2CC[C@@]2(C)C1CC[C@@H]2OC(=O)CC[Se][Se]CCC(=O)O[C@H]1CCC2[C@@H]3CCC4CC(=O)CC[C@]4(C)C3CC[C@@]21C (some centres not stated)
GI50 [1]: 3.25 µM | TGI [1]: 9.36 µM | GI50 [2]: 1.76 µM | TGI [2]: 4.15 µM | GI50 [3]: 1.94 µM | TGI [3]: 4.39 µM | GI50 [4]: 3.61 µM | TGI [4]: 13.2 µM | GI50 [5]: 2.1 µM | TGI [5]: 4.52 µM | GI50 [6]: 1.64 µM | TGI [6]: 5.09 µM | GI50 [7]: 3.54 µM | TGI [7]: > 100 µM | GI50 [8]: 2.17 µM | TGI [8]: 4.01 µM | GI50 [9]: 2.19 µM | TGI [9]: 5.05 µM | GI50 [10]: 2.44 µM | GI50 [11]: 13.4 µM | TGI [11]: 31.6 µM | GI50 [12]: 2.01 µM | TGI [12]: 4.16 µM | GI50 [13]: 3.64 µM | TGI [13]: 16 µM | GI50 [14]: 4.15 µM | TGI [14]: > 100 µM | GI50 [15]: 2.52 µM | TGI [15]: 5.34 µM | GI50 [16]: 2.22 µM | TGI [16]: 6.04 µM | GI50 [17]: 2.02 µM | TGI [17]: 7.79 µM | GI50 [18]: 2.5 µM | TGI [18]: 6.01 µM | GI50 [19]: 2.13 µM | TGI [19]: 4.3 µM | GI50 [20]: 10 µM | TGI [20]: > 100 µM | GI50 [21]: 4.09 µM | TGI [21]: 14.5 µM | GI50 [22]: 2.12 µM | TGI [22]: 5.07 µM | GI50 [58]: 2.28 µM | TGI [58]: 5.69 µM | GI50 [23]: 1.83 µM | TGI [23]: 3.63 µM | GI50 [24]: 3.85 µM | TGI [24]: 12 µM | GI50 [25]: 1.57 µM | TGI [25]: 3.36 µM | GI50 [26]: 1.82 µM | TGI [26]: 3.83 µM | GI50 [27]: 4.67 µM | TGI [27]: > 100 µM | GI50 [28]: 2.25 µM | TGI [28]: 5.79 µM | GI50 [29]: 3.63 µM | TGI [29]: 18.4 µM | GI50 [30]: 2.84 µM | TGI [30]: 9.81 µM | GI50 [31]: 3.17 µM | TGI [31]: 10.9 µM | GI50 [32]: 3.03 µM | TGI [32]: 11.4 µM | GI50 [33]: 2.73 µM | TGI [33]: 6.84 µM | GI50 [34]: 3.51 µM | TGI [34]: 15.6 µM | GI50 [35]: 6.5 µM | TGI [35]: 25.1 µM | GI50 [36]: 3.06 µM | TGI [36]: 9.84 µM | GI50 [37]: 2.55 µM | TGI [37]: 8.27 µM | GI50 [38]: 5.03 µM | TGI [38]: > 100 µM | GI50 [39]: 2.08 µM | TGI [39]: 7.95 µM | GI50 [40]: 1.86 µM | TGI [40]: 3.79 µM | GI50 [42]: 3.22 µM | TGI [42]: 10.5 µM | GI50 [43]: 2.67 µM | TGI [43]: 5.7 µM | GI50 [44]: 2.01 µM | TGI [44]: 5.05 µM | GI50 [45]: 1.77 µM | TGI [45]: 3.35 µM | GI50 [46]: 7.15 µM | TGI [46]: 17.4 µM | GI50 [47]: 1.82 µM | TGI [47]: 3.75 µM | GI50 [48]: 2.25 µM | TGI [48]: 6.43 µM | GI50 [49]: 1.48 µM | TGI [49]: 3.02 µM | GI50 [50]: 4.28 µM | TGI [50]: > 100 µM | GI50 [51]: 4.81 µM | TGI [51]: 20 µM | GI50 [52]: 9.1 µM | TGI [52]: 27.1 µM | GI50 [53]: 2.1 µM | TGI [53]: 4.79 µM | GI50 [54]: 1.91 µM | TGI [54]: 3.85 µM | GI50 [55]: 2.86 µM | TGI [55]: 13 µM | GI50 [56]: 2.2 µM | TGI [56]: 8.05 µM | GI50 [57]: 2.61 µM | TGI [57]: 10.7 µM
